Laboratory results published in US20160045463A1, “USE OF METALLOPROTEASE INHIBITORS IN THE TREATMENT OF POLYCYSTIC LIVER DISEASES” (UNIVERSIDAD DE SALAMANCA, priority 2012, published 2016).

Key:
[1] = 0.2856 mg/kg/day; patients with colorectal cancer; cited from earlier work
[2] = test system: normal human cholangiocytes; assay: Metalloproteolytic activity of culture supernatants, ES001 fluorogenic peptide cleavage; type: cell-based; conditions: normal cholangiocytes; 13-cis-retinoic acid 10 μM/ml or Marimastat 200 μM/ml; p<0.01; FIG. 21
Protocol: (§1) Metalloproteolytic or metalloprotease activity was measured in supernatants of cultures of normal human cholangiocytes and polycystic human cholangiocytes by an assay based on the cleavage of the ES001 fluorogenic synthetic peptide (R&D Systems Minneapolis, Minn., USA) that emits fluorescence proportional to metalloproteolytic activity. The substrate Mca-Pro-Leu-Gly-Leu-Dpa-Ala-Arg-NH2 [Mca: (7-Methoxycoumarin-4-yl)acetyl, Dpa: N-3-(2,4-Dinitrophenyl)-L-2,3-diaminopropionyl] (Knight C G, et al. FEBS Letters 1992; 296:263) is lysed between glycine and leucine by the action of the MMPs, especially MMP-1 (collagenase 1), MMP-2 (gelatinase A), MMP-7 (matrilysin), MMP-8 (collagenase 2), MMP-9 (gelatinase B), MMP-12 (macrophage elastase), MMP-13 (collagenase 3), MMP-14 (MT1-MMP), MMP-15 (MT2-MMP) and MMP-16 (MT3-MMP).
(§2) The basal metalloproteolytic activity of normal human cholangiocyte and polycystic human cholangiocytes cultures was determined by trypsinising the contents of 250 ml flasks and counting the number of cells in an inverted optical microscope using a Neubauer camera and a ½ dilution of the cell solution with trypan blue (Sigma). Next, 300,000 cells were seeded in each well of a 6-well plate and incubated with enriched DMEM/F-12 medium for 24 hours. After this time, the cells were washed with PBS and the culture medium changed for 2 ml of quiescent medium (DMEM/F-12, 1% FBS and 1% P/S) and incubated for 6 hours at 37° C./5% CO2. The supernatant was collected from each well and centrifuged at 4° C. for 10 minutes at 1,500 rpm to remove the dead cells present in the supernatant. The supernatant was concentrated 50 times using a 15 kDa (Millipore) Amicon Ultra concentrator. Next the concentrated supernatant was incubated for 2 hours at 37° C. with the ES001 fluorogenic peptide at a final concentration of 10 μM. Also, GM6001 (a global MMP inhibitor) and aprotinin (a global inhibitor of serine proteases) (both from Sigma-Aldrich) were used as controls of the specificity of the analysis of MMP activity in the assay. Recombinant MMP-10 (kindly provided by Dr. José Antonio Rodriguez Garcia, Laboratorio de Ateroesclerosis e Inflamación del CIMA, Universidad de Navarra) was used as a positive control and DMEM/F-12 medium without serum was used as the negative control. The fluorescence determination was kinetically measured in a Spectra MAX GeminiXS (Molecular Devices Sunnyvale, Calif., USA) spectrophotometer at excitation-emission wavelengths of 320-405 nm. The fluorescence intensity emitted by the culture medium was extracted from the metalloproteolytic activity values. The metalloproteolytic activity was calculated from the tangent to the curve of the fluorescence values using at least six different points over time for each type of cell and condition.
(§3) To analyse the effect of various stimuli on the metalloproteolytic activity of normal and polycystic human cholangiocytes cultures, a protocol similar to that described before in Example 2 was followed, but in this case the incubation of the cells was with quiescent medium (i.e. DMEM/F12, […]) in the presence of the corresponding stimulus (Table 3). Next, the same procedure as described for the analysis of basal metalloproteolytic activity was followed as described in Example 2.
(§4) Taking into account that: i) basal activity of polycystic human cholangiocytes in culture is greater than that of normal human cholangiocytes and ii) that IL-6 and IL-8 increased the metalloproteolytic activity of normal and polycystic human cholangiocytes, the role of these two cytokines on metalloproteolytic hyperactivity of polycystic human cholangiocytes using antibodies against the receptors of IL-6 (IL6R) and/or IL-8 (CXCR1) was investigated. […]

[3] = test system: polycystic human cholangiocytes; assay: as above; type: cell-based; conditions: polycystic cholangiocytes; 13-cis-retinoic acid 10 μM/ml or Marimastat 200 μM/ml; p<0.01; FIG. 21
Protocol: as §1, §2, §3, §4

normal rats = assay: Normal rats treated with Marimastat orally for 1 week; type: in vivo, rat; conditions: oral, same dose
Protocol: The various biochemical and histological markers listed above were also analysed. […] There were also no changes in the mean body weight of the animals.

For `CNC(=O)[C@@H](NC(=O)[C@H](CC(C)C)[C@H](O)C(=O)NO)C(C)(C)C` [Marimastat, N-[2,2-dimethyl-1-(methylcarbamoyl)propyl]-2-[hydroxy-(hydroxycarbamoyl)methyl]-4-methyl-pentanamide], which “toxicity at dose used in clinical trials” value [1] is on record?
Its value is “does not cause toxicity”.

And the “basal metalloproteolytic activity in presence of inhibitor” value [2]?
The value was “inhibited”.

What about the “basal metalloproteolytic activity in presence of inhibitor” value [3] of the same compound?
The value was “inhibited”.

And the “histology of the liver or the kidney” value (normal rats)?
The value was “did not affect”.

And the “mean body weight of the animals” value (normal rats)?
Its value is “no changes”.

What about the “serum levels of biochemical markers” value (normal rats) of the same compound?
Its value is “did not affect”.
